Measurements: patent US7812009B2, “Mastitis treatment” (Intervet International B.V., priority 2002, dated 2010)

Key:
[1] = test system: cows with endotoxin-induced mastitis; test: Udder scores (local inflammation) in cows with E. coli endotoxin-induced mastitis; format: in vivo
Description: Twenty-four cows were allotted to four groups of 6 cows each, according to milk production and parity. All cows were intramammary infused into two homo-lateral quarters with 100 μg Escherichia coli endotoxin (purified lipopolysacchide (LPS) obtained from E. coli 0111:B4) in 20 ml saline.
The test preparations contained cephapirin and prednisolone in an oily carrier. Four different dose levels of prednisolone were tested: 0 mg (group 1), 10 mg (group 2), 20 mg (group 3) and 40 mg (group 4) per injector (8 g) together with 200 mg of cephapirin sodium.
Cows were treated with the contents of one injector per endotoxin infused quarter when the first signs of clinical mastitis were evident, i.e. 1.5 hours after endotoxin infusion. The next three treatments were infused immediately after consecutive afternoon or morning milkings (12 hours interval) during 2 days. In total four treatments were administered.
Udder scores: The condition and swelling of quarters were determined by palpation once daily after morning milking from day−7 to day−1 relative to endotoxin infusion and twice daily after milkings from day+1 to day+6 relative to endotoxin infusion. The day of endotoxin infusion, swelling of quarters was assessed by palpation approximately every half hour during ±12.5 hours after infusion. The scoring system provides scores 0 to 4. Higher values refer to increased and more severe signs of local inflammation.

[2] = test system: pathogen identified on day 0 (clinical mastitis); test: Field study: bacteriological cure rate in clinical mastitis; format: in vivo, cows; settings: higher dosage of prednisolone (20 mg) versus 10 mg, field conditions
Description: Lactating cows with clinical mastitis in a single quarter (571) were treated intramammarily either with a composition A (n=260) comprising 300 mg cefapirin sodium and 20 mg of prednisolone four times with a 12 h interval or with composition B (n=254) comprising 200 mg amoxicilline, 50 mg clavulanic acid and 10 mg of prednisolone three times with a 12 h interval. These administration schedules correspond to the recommended dosage of the products. The efficacy of the treatment was determined by the bacteriological cure rate (elimination of pathogen identified on day 0) at day 14, and day 21 and the clinical cure rate (affected quarter produces normal milk and no signs of clinical mastitis anymore) at days 14 and 21.
Bacteriological cure: A cow was considered as bacteriologically cured when, both on Days 14 and 21, the milk sample from the affected quarter was free from pathogen(s) present at day 0 (at admission prior to treatment). For clinical mastitis, treatment were considered as a failure for which cows were not yet clinically cured on the first post-treatment sampling (Day 14). […]
The parameters for efficacy are the outcome variables “bacteriological cure” (cure/non-cure) and “clinical cure” (cure/non-cure). The results in Table 3 and FIG. 6 are expressed as numbers and percentages of cows cured.

[3] = test system: non-bacterial E. coli endotoxin induced clinical mastitis; settings: intramammary infusion of 40 mg/unit dose; experimental conditions; cited from earlier work
[4] = test system: experimental Streptococcus uberis mastitis; test: Rectal temperature in cows with experimental Streptococcus uberis mastitis; format: in vivo; settings: cephapirin alone, intramammary, 4 infusions
Description: Eighteen lactating cows were intramammarily inoculated into the two left quarters with Streptococcus uberis (±1000 CFU/quarter). At 2 days after challenge, when all cows had clinical signs of mastitis (i.e. quarter foremilk modification and/or udder swelling), cows were allotted to three groups of six cows each, to produce groups with similar parity and milk production.
One group was treated with cephapirin alone (group 1), one group was treated with cephapirin and 20 mg prednisolone (group 2) and one group was non-treated (group 3). Cows included in group 1 and group 2 were treated in the 2 left inoculated quarters at day 2 after challenge. The first treatment was applied after a morning milking, and the following three infusions were performed immediately after the next 3 consecutive milkings. Cows of group 3 were left untreated. […] The rectal temperature was determined from day 9 before first treatment up to day 19 after first treatment.

leukocytes in blood = test: Number of leukocytes in blood from cows with endotoxin-induced mastitis; format: in vivo
Description: (§1) Fifteen cows were allotted to three groups of 5 cows each, according to milk production and parity. Cows were intramammary infused into 2 homo-lateral quarters with 100 μg Escherichia coli endotoxin (purified lipopolysacchide (LPS) obtained from E. coli 0111:B4) in 20 ml saline.
(§2) Cows were treated with the contents of one injector per endotoxin infused quarter when the first signs of clinical mastitis were evident, i.e. approximately 2 hours after endotoxin infusion. One group was treated with 300 mg of cephapirin, one group with 300 mg of cephapirin and 20 mg of prednisolone and one group was the non-treated control. The test preparations contained cephapirin and prednisolone in an oil carrier.
(§3) Blood samples were collected from the jugular vein at 24 hours before endotoxin infusion and 1.5, 8, 48 and 72 hours after endotoxin infusion.

blood PMN = test: Chemotaxis of blood PMN from cows with endotoxin-induced mastitis; format: in vivo
Description: as §1, §2, §3

[5] = 1.5 hours relative to endotoxin infusion (before first treatment)
[6] = 8 hours relative to endotoxin infusion, treatments at 2, 8, 24 and 36 hours
[7] = 24 hours relative to endotoxin infusion, treatments at 2, 8, 24 and 36 hours
[8] = 72 hours relative to endotoxin infusion, treatments at 2, 8, 24 and 36 hours
[9] = −24 hours relative to endotoxin infusion (before treatment)

| SMILES | dose effect relation of prednisolone and sum of udder scores ([1]; 0, 10, 20, 40 mg prednisolone per injector with 200 mg cephapirin sodium, higher dosages gave lower sum of udder scores) | sum of udder scores compared to placebo quarters ([1]; 20 mg prednisolone per injector with 200 mg cephapirin sodium, intramammary, 4 treatments, from 8 hours post infusion up to evening milking of day 5) | sum of udder scores compared to placebo quarters (0 mg prednisolone) and quarters treated with 10 mg prednisolone ([1]; 40 mg prednisolone per injector with 200 mg cephapirin sodium, intramammary, 4 treatments, from 8 hours post infusion up to evening milking of day 5) | influence on the bacteriological cure rate [2] | effects on local and systemic inflammatory signs [3] | average rectal temperature after treatment [4] | Number of leukocytes in blood (mean) (leukocytes in blood; [5]) | Number of leukocytes in blood (mean) (leukocytes in blood; [6]) | Number of leukocytes in blood (mean) (leukocytes in blood; [7]) | Number of leukocytes in blood (mean) (leukocytes in blood; [8]) | Number of leukocytes in blood (mean) (leukocytes in blood; [9]) | Chemotactic PMN (mean) (blood PMN; [5]) | Chemotactic PMN (mean) (blood PMN; [6]) | Chemotactic PMN (mean) (blood PMN; [7]) | Chemotactic PMN (mean) (blood PMN; [8]) | Chemotactic PMN (mean) (blood PMN; [9]) |
| --- | --- | --- | --- | --- | --- | --- | --- | --- | --- | --- | --- | --- | --- | --- | --- | --- |
| C[C@]12C=CC(=O)C=C1CC[C@@H]1[C@@H]2[C@@H](O)C[C@@]2(C)[C@H]1CC[C@]2(O)C(=O)CO [prednisolone, (11β)-11,17,21-trihydroxypregna-1,4-diene-3,20-dione] | clear dose effect relation | lower sum of udder scores | significantly lower | did not negatively influence | improved effects | – | – | – | – | – | – | – | – | – | – | – |
| CC(=O)OCC1=C(C(=O)O)N2C(=O)[C@@H](NC(=O)CSc3ccncc3)[C@H]2SC1 [Cephapirin] | – | – | – | – | – | decreased slowly | 8157 | 6329 | 12148 | 11317 | 8217 | 1.404e+06 mL⁻¹ | 142000 mL⁻¹ | 650000 mL⁻¹ | 135000 mL⁻¹ | 2.115e+06 mL⁻¹ |
